Measurements: US20230203081A1, “LINCOSAMIDE ANTIBIOTICS AND USES THEREOF” (President and Fellows of Harvard College, priority 2020, published 2023)
≈ marks a conversion by molar mass, not a printed value. Read-outs that look alike come from different tables or passages of the source.

Columns and labels:
Type in all cases: cell-based
E. coli armA = assay: microbe, parasite or virus in culture; details: Escherichia coli
Method in brief: (§1)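 Per CLSI, MICs by broth microdilution or agar dilution; strains other than streptococci and anaerobes were sub-cultured overnight at 35° C on blood agar, with a final broth inoculum of 5×10^5 CFU/mL.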

E. coli ΔTolC = assay: microbe, parasite or virus in culture; details: Escherichia coli
Method in brief: as §1

S. aureus BAA 977 iErmA = assay: microbe, parasite or virus in culture; details: Staphylococcus aureus
Method in brief: as §1

S. aureus MP-549 msrA = assay: microbe, parasite or virus in culture; details: Staphylococcus aureus, MP549MSRA
Method in brief: as §1

E. coli ATCC 25922 = assay: MIC (broth microdilution or agar dilution, CLSI)
Method in brief: as §1

E. coli LptD = assay: MIC (broth microdilution or agar dilution, CLSI); details: Escherichia coli, read-out: MIC
Method in brief: as §1

E. faecalis ATCC 29212 = assay: MIC (broth microdilution or agar dilution, CLSI); details: Enterococcus faecalis, read-out: MIC
Method in brief: as §1

[1] = system: E. faecalis MMX 847; cErmB; assay: MIC (broth microdilution or agar dilution, CLSI); details: cErmB
Method in brief: as §1

K. oxytoca Clinical = assay: MIC (broth microdilution or agar dilution, CLSI)
Method in brief: as §1

K. pneumoniae ATCC 10031 = assay: MIC (broth microdilution or agar dilution, CLSI); details: Klebsiella pneumoniae, ATCC10031, K. pneumoniae HAV#008, ATCC 10031; read-out: MIC
Method in brief: as §1

S. aureus ATCC 29213 = assay: MIC (broth microdilution or agar dilution, CLSI); details: Staphylococcus aureus, read-out: MIC
Method in brief: as §1

S. aureus ATCC 700699 = assay: MIC (broth microdilution or agar dilution, CLSI); details: Staphylococcus aureus, read-out: MIC
Method in brief: as §1

[2] = system: S. aureus ATCC BAA-1707 (MRSA); assay: MIC (broth microdilution or agar dilution, CLSI)
Method in brief: as §1

S. aureus MMX 3035 cErmA = assay: MIC (broth microdilution or agar dilution, CLSI)
Method in brief: as §1

S. aureus hVISA = assay: MIC (broth microdilution or agar dilution, CLSI)
Method in brief: as §1

S. pneumoniae ATCC 49619 = assay: MIC (broth microdilution or agar dilution, CLSI); details: Streptococcus pneumoniae, ATCC49619, S. pneumoniae HAV#003, ATCC 49619; read-out: MIC
Method in brief: as §1

S. pneumoniae ATCC 6303 = assay: MIC (broth microdilution or agar dilution, CLSI)
Method in brief: as §1

[3] = system: S. pneumoniae MMX 3028 cErmB; assay: MIC (broth microdilution or agar dilution, CLSI)
Method in brief: as §1

[4] = system: S. pneumoniae MMX 3031 cMefA; assay: MIC (broth microdilution or agar dilution, CLSI); details: Streptococcus pneumoniae, MMX3031CMEFA, read-out: MIC
Method in brief: as §1

S. pyogenes ATCC 19615 = assay: MIC (broth microdilution or agar dilution, CLSI); details: Streptococcus pyogenes, read-out: MIC
Method in brief: as §1

[5] = system: S. pyogenes MMX 946; cErmB; assay: MIC (broth microdilution or agar dilution, CLSI); details: for MIC: cErmB
Method in brief: as §1

With `CSC1O[C@H]([C@H](NC(=O)[C@H]2NC[C@@H]3C[C@H](CC(C)C)CCO[C@H]32)[C@H](C)Cl)C(O)[C@@H](O)[C@H]1O` (stereo partly shown) [FSA-513018b] the MIC (E. coli armA; E. coli HAV#056, Clinical, armA) was 8 µg/mL (≈ 16.2 µM), the MIC (E. coli armA; E. coli armA) was 8 µg/mL (≈ 16.2 µM) and the MIC (E. coli ΔTolC; E. coli HAV#038, ΔTolC) was 0.5 µg/mL (≈ 1.01 µM). The MIC (E. coli ΔTolC; E. coli ΔTolC) was 0.5 µg/mL (≈ 1.01 µM), the MIC (S. aureus BAA 977 iErmA; BAA977) was ≤ 0.06 µg/mL and the MIC (S. aureus BAA 977 iErmA; BAA-977 / MRSA) was 0.06 µg/mL (≈ 0.121 µM). The MIC (S. aureus BAA 977 iErmA; BAA-977 / MRSA, 24 h) was 2 µg/mL (≈ 4.04 µM), the MIC (S. aureus MP-549 msrA; S. aureus MP-549 msrA) was ≤ 0.06 µg/mL and the MIC (S. aureus MP-549 msrA; S. aureus HAV#032, MP-549, MSR(A)) was 0.06 µg/mL (≈ 0.121 µM). For the same molecule, the MIC (E. coli ATCC 25922; E. coli HAV#006, ATCC 25922) was 8 µg/mL (≈ 16.2 µM), the MIC (E. coli ATCC 25922; Escherichia coli, ATCC25922, E. coli ATCC 25922, read-out: MIC) was 8 µg/mL (≈ 16.2 µM) and the MIC (E. coli LptD; E. coli HAV#040, LptD) was 1 µg/mL (≈ 2.02 µM). For the same molecule, the MIC (E. coli LptD; E. coli LptD) was 1 µg/mL (≈ 2.02 µM), the MIC (E. faecalis ATCC 29212; ATCC29212, E. faecalis ATCC 29212) was ≤ 0.06 µg/mL and the MIC (E. faecalis ATCC 29212; ATCC29212, E. faecalis HAV#005, ATCC 29212) was 0.06 µg/mL (≈ 0.121 µM). For the same molecule, the MIC ([1]; E. faecalis HAV#036, MMX 847, mac-resistant) was 1 µg/mL (≈ 2.02 µM), the MIC ([1]; Enterococcus faecalis, E. faecalis MMX 847, read-out: MIC) was 1 µg/mL (≈ 2.02 µM) and the MIC (K. oxytoca Clinical; K. oxytoca HAV#450, Clinical) was 8 µg/mL (≈ 16.2 µM). For the same molecule, the MIC (K. oxytoca Clinical; Klebsiella oxytoca, K. oxytoca Clinical, read-out: MIC) was 8 µg/mL (≈ 16.2 µM), the MIC (K. pneumoniae ATCC 10031) was 0.25 µg/mL (≈ 0.505 µM) and the MIC (S. aureus ATCC 29213; ATCC29213, S. aureus ATCC 29213) was ≤ 0.06 µg/mL. It also gave an MIC (S. aureus ATCC 29213; ATCC29213, S. aureus HAV#001, ATCC 29213, MP-549) of 0.06 µg/mL (≈ 0.121 µM), an MIC (S. aureus ATCC 700699; ATCC700699, S. aureus ATCC 700699) of 2 µg/mL (≈ 4.04 µM) and an MIC (S. aureus ATCC 700699; S. aureus HAV#202, ATCC 700699 (VISA)) of 2 µg/mL (≈ 4.04 µM). For the same molecule, the MIC ([2]; S. aureus HAV#016, ATCC BAA-1707, MRSA) was 0.06 µg/mL (≈ 0.121 µM), the MIC ([2]; Staphylococcus aureus, S. aureus ATCC BAA-1707 (MRSA), read-out: MIC) was 0.06 µg/mL (≈ 0.121 µM) and the MIC (S. aureus MMX 3035 cErmA; S. aureus HAV#031, MMX 3035, cErmA) was 4 µg/mL (≈ 8.08 µM). The MIC (S. aureus MMX 3035 cErmA; Staphylococcus aureus, MMX3035CERMA, S. aureus MMX 3035 cErmA, read-out: MIC) was 4 µg/mL (≈ 8.08 µM), the MIC (S. aureus hVISA; S. aureus HAV#204, hVISA) was 1 µg/mL (≈ 2.02 µM) and the MIC (S. aureus hVISA; Staphylococcus aureus, S. aureus hVISA, read-out: MIC) was 1 µg/mL (≈ 2.02 µM). It also gave an MIC (S. pneumoniae ATCC 49619) of 0.015 µg/mL (≈ 0.0303 µM), an MIC (S. pneumoniae ATCC 6303; S. pneumoniae HAV#351, ATCC 6303) of 0.03 µg/mL (≈ 0.0606 µM) and an MIC (S. pneumoniae ATCC 6303; Streptococcus pneumoniae, ATCC6303, S. pneumoniae ATCC 6303, read-out: MIC) of 0.03 µg/mL (≈ 0.0606 µM). For the same molecule, the MIC ([3]; S. pneumoniae HAV#033, MMX 3028, cErmB) was 0.25 µg/mL (≈ 0.505 µM), the “MIC lower than that of clindamycin (fold)” value ([3]; S. pneumoniae, c-ermB-mediated resistance) was ≥ 1,000 × and the MIC ([3]; Streptococcus pneumoniae, MMX3028CERMB, S. pneumoniae MMX 3028 cErmB, read-out: MIC) was 0.25 µg/mL (≈ 0.505 µM). The MIC ([4]; S. pneumoniae HAV#034, MMX 3031, cMefA) was 0.03 µg/mL (≈ 0.0606 µM), the MIC ([4]; S. pneumoniae MMX 3031 cMefA) was ≤ 0.06 µg/mL and the MIC (S. pyogenes ATCC 19615; ATCC19615, S. pyogenes ATCC 19615) was ≤ 0.06 µg/mL. For the same molecule, the MIC (S. pyogenes ATCC 19615; ATCC19615, S. pyogenes HAV#004, ATCC 19615) was 0.03 µg/mL (≈ 0.0606 µM), the MIC ([5]; S. pyogenes HAV#035, MMX 946, mac-resistant) was 0.25 µg/mL (≈ 0.505 µM) and the “MIC lower than that of clindamycin (fold)” value ([5]; S. pyogenes, c-ermB-mediated resistance) was ≥ 1,000 ×. The MIC ([5]; Streptococcus pyogenes, S. pyogenes MMX 946, read-out: MIC) was 0.25 µg/mL (≈ 0.505 µM).
